Measurements as given in US5041570A, “Photosensitive 4,4'-diazidostilbene derivative” (priority 1988, dated 1991).
Where a name gives a salt, the structure may show the parent alone.

Experiments:
Format in all cases: physicochemical
Solubility in water [1] = assay: Solubility in water
[2] = Solubility of photosensitive agent in polyvinylpyrrolidone/ethylcellosolve solution; details: Table 4; 5 g polyvinylpyrrolidone in 106 g ethylcellosolve; sodium salt (*): solubility varied with crystal form
[3] = as above; details: Table 2; 5 g polyvinylpyrrolidone in 106 g ethylcellosolve; sodium salt (*): solubility varied with crystal form
Method: The respective Amides synthesized in Examples 1 and 2 in amounts shown in Table 2 are dissolved in a solution comprising 5 g of polyvinylpyrrolidone (average molecular weight: 320,000) dissolved in 106 g of ethylcellosolve,to evaluate their solubility.

[4] = Solubility in 2.5% ethylcellosolve; design: key to Solubility in 2.5% ethylcellosolve, 25° C. / Solubility in 2.5% ethylcellosolve, 60° C.: Good: completely soluble; Fair: with small amounts of undissolved portion; Poor: with large amounts of undissolved portion; details: for Solubility in 2.5% ethylcellosolve, 25° C. / Solubility in 2.5% ethylcellosolve, 60° C.: Table 7; for solubility (comparison in words): compared to Comparative Examples 14-16, Table 7
Method: (§1) The compounds shown in Table 7 were prepared using the same procedures as in Example 16, and each compound was measured for solubilities in 2.5% ethylcellosolve and water to obtain the results shown in Table 7.

Solubility in water [5] = assay: Solubility in water; remark: listed apart in the source
Method: as §1

[6] = Solubility in ethylcellosolve solution containing 4.5% polyvinylpyrrolidone and compatibility with binder polymers; details: Example 20
From the text: A 4,4'-diazidostilbene-2,2'-disulfonic acid aqueous solution was obtained using the same procedures as in Example 15. It was mixed with dibutylamine and the pH value adjusted to 9.0 to deposit crystals. The crystals were filtered, washed with water, and dried to obtain dibutylamine salt of 4,4'-diazidostilbene-2,2'-disulfonic acid (yield: 91.2%).

[7] = listed as Comparative Example 16
[8] = listed as Comparative Example 15

## [N-]=[N+]=Nc1ccc(C=Cc2ccc(N=[N+]=[N-])cc2S(=O)(=O)O)c(S(=O)(=O)O)c1 [Example 17, triethylamine salt of 4,4'-diazidostilbene-2,2'-disulfonic acid]
Solubility in water [1]; Table 5
  Solubility (water, 25° C.): ≥ 10%

## [N-]=[N+]=Nc1ccc(C=Cc2ccc(N=[N+]=[N-])cc2S(=O)(=O)Nc2ccccc2)c(S(=O)(=O)Nc2ccccc2)c1 [Arylamide B, reference compound]
[2]
  Solubility: Poor

## [N-]=[N+]=Nc1ccc(C=Cc2ccc(N=[N+]=[N-])cc2S(=O)(=O)O)c(S(=O)(=O)O)c1 [Ammonium salt, reference compound]
[3]
  Solubility: Poor
[4]; [7]
  Solubility in 2.5% ethylcellosolve, 25° C.: Poor
  Solubility in 2.5% ethylcellosolve, 60° C.: Poor
[2]
  Solubility: Poor
Solubility in water [1]; Table 5, listed as Comparative Example 12
  Solubility (water, 25° C.): 1.8%
Solubility in water [5]; Table 7, listed as Comparative Example 16
  Solubility in water, 25° C.: 18%

## [N-]=[N+]=Nc1ccc(C=Cc2ccc(N=[N+]=[N-])cc2S(=O)(=O)Nc2ccccc2)c(S(=O)(=O)Nc2ccccc2)c1 [Arylamide A, reference compound]
[3]
  Solubility: Poor

## [N-]=[N+]=Nc1ccc(C=Cc2ccc(N=[N+]=[N-])cc2S(=O)(=O)O)c(S(=O)(=O)O)c1 [Example 21]
[4]
  Solubility in 2.5% ethylcellosolve, 25° C.: Good
  Solubility in 2.5% ethylcellosolve, 60° C.: Good
  solubility (comparison in words): good solubilities
Solubility in water [5]; Table 7
  Solubility in water, 25° C.: 6.5%

## CCOCCNS(=O)(=O)c1cc(N=[N+]=[N-])ccc1C=Cc1ccc(N=[N+]=[N-])cc1S(=O)(=O)NCCOCC [Amide No. 8]
[3]
  Solubility: Good

## CC1CC(=Cc2ccc(N=[N+]=[N-])cc2S(=O)(=O)O)C(=O)C(=Cc2ccc(N=[N+]=[N-])cc2S(=O)(=O)O)C1 (stereo not shown) [Example 19, triethylamine salt of 2,6-bis-(4'-azidobenzal)-4-methyl-cyclohexanone-2,2'-disulfonic acid]
Solubility in water [1]; Table 6
  Solubility (water, 25° C.): ≥ 10%

## CCCCCN(CCCCC)S(=O)(=O)c1cc(N=[N+]=[N-])ccc1C=Cc1ccc(N=[N+]=[N-])cc1S(=O)(=O)N(CCCCC)CCCCC [Amide No. 15]
[2]
  Solubility: Good

## CCCNS(=O)(=O)c1cc(N=[N+]=[N-])ccc1C=Cc1ccc(N=[N+]=[N-])cc1S(=O)(=O)NCCC [Lower alkyl amide A, reference compound]
[2]
  Solubility: Poor

## [N-]=[N+]=Nc1ccc(C=Cc2ccc(N=[N+]=[N-])cc2S(=O)(=O)O)c(S(=O)(=O)O)c1 [Example 16]
Solubility in water [1]; Table 5
  Solubility (water, 25° C.): ≥ 10%

## [N-]=[N+]=Nc1ccc(C=Cc2ccc(N=[N+]=[N-])cc2S(=O)(=O)O)c(S(=O)(=O)O)c1 [Example 22]
[4]
  Solubility in 2.5% ethylcellosolve, 25° C.: Good
  Solubility in 2.5% ethylcellosolve, 60° C.: Good
  solubility (comparison in words): good solubilities
Solubility in water [5]; Table 7
  Solubility in water, 25° C.: ≥ 10%

## COCCOCCNS(=O)(=O)c1cc(N=[N+]=[N-])ccc1C=Cc1ccc(N=[N+]=[N-])cc1S(=O)(=O)NCCOCCOC [Amide No. 7]
[3]
  Solubility: Good

## [N-]=[N+]=Nc1ccc(C=Cc2ccc(N=[N+]=[N-])cc2S(=O)(=O)[O-])c(S(=O)(=O)[O-])c1.[Na+].[Na+] [Sodium salt, sodium 4,4'-diazidostilbene-2,2'-disulfonate, reference compound]
[3]
  Solubility: Fair
[4]
  Solubility in 2.5% ethylcellosolve, 25° C.: Fair
  Solubility in 2.5% ethylcellosolve, 60° C.: Good
[2]
  Solubility: Fair
Solubility in water [1]; Table 5
  Solubility (water, 25° C.): 3.3%

## CC(CCO)NS(=O)(=O)c1cc(N=[N+]=[N-])ccc1C=Cc1ccc(N=[N+]=[N-])cc1S(=O)(=O)NC(C)CCO (stereo not shown) [Amide No. 3]
[3]
  Solubility: Good

## [N-]=[N+]=Nc1ccc(C=Cc2ccc(N=[N+]=[N-])cc2S(=O)(=O)NCCOCCO)c(S(=O)(=O)NCCOCCO)c1 [Amide No. 4]
[3]
  Solubility: Good

## CCCCCCCCNS(=O)(=O)c1cc(N=[N+]=[N-])ccc1C=Cc1ccc(N=[N+]=[N-])cc1S(=O)(=O)NCCCCCCCC [Amide No. 9]
[2]
  Solubility: Good

## CCOCCOS(=O)(=O)c1cc(N=[N+]=[N-])ccc1C=Cc1ccc(N=[N+]=[N-])cc1S(=O)(=O)OCCOCC [Ester B, reference compound]
[3]
  Solubility: Good

## [N-]=[N+]=Nc1ccc(C=Cc2ccc(N=[N+]=[N-])cc2S(=O)(=O)O)c(S(=O)(=O)O)c1 [compound 11, reference compound]
[4]; [8]
  Solubility in 2.5% ethylcellosolve, 25° C.: Poor
  Solubility in 2.5% ethylcellosolve, 60° C.: Poor
Solubility in water [1]; Table 5
  Solubility (water, 25° C.): 3.0%

## CCCCOS(=O)(=O)c1cc(N=[N+]=[N-])ccc1C=Cc1ccc(N=[N+]=[N-])cc1S(=O)(=O)OCCCC [Ester C, reference compound]
[2]
  Solubility: Good

## CCCCCCCNS(=O)(=O)c1cc(N=[N+]=[N-])ccc1C=Cc1ccc(N=[N+]=[N-])cc1S(=O)(=O)NCCCCCCC [Amide No. 11]
[2]
  Solubility: Good

## CC1CC(=Cc2ccc(N=[N+]=[N-])cc2S(=O)(=O)O)C(=O)C(=Cc2ccc(N=[N+]=[N-])cc2S(=O)(=O)O)C1 (stereo not shown) [Example 18]
Solubility in water [1]; Table 6
  Solubility (water, 25° C.): 7.0%

## [N-]=[N+]=Nc1ccc(C=Cc2ccc(N=[N+]=[N-])cc2S(=O)(=O)NCCO)c(S(=O)(=O)NCCO)c1 [Amide No. 2]
[3]
  Solubility: Good

## CCCCN(C)S(=O)(=O)c1cc(N=[N+]=[N-])ccc1C=Cc1ccc(N=[N+]=[N-])cc1S(=O)(=O)N(C)CCCC [Amide No. 14]
[2]
  Solubility: Good

## CC1CC(=Cc2ccc(N=[N+]=[N-])cc2S(=O)(=O)O)C(=O)C(=Cc2ccc(N=[N+]=[N-])cc2S(=O)(=O)O)C1 (stereo not shown) [Comparative Example 13, Na salt of 2,6-bis(4'-azidobenzal)-4-methyl-cyclohexanone-2,2'-disulfonic acid, reference compound]
Solubility in water [1]; Table 6
  Solubility (water, 25° C.): 0.9%

## [N-]=[N+]=Nc1ccc(C=Cc2ccc(N=[N+]=[N-])cc2S(=O)(=O)NCCCO)c(S(=O)(=O)NCCCO)c1 [Amide No. 1]
[3]
  Solubility: Good

## [N-]=[N+]=Nc1ccc(C=Cc2ccc(N=[N+]=[N-])cc2S(=O)(=O)O)c(S(=O)(=O)O)c1 [Example 20, dibutylamine salt of 4,4'-diazidostilbene-2,2'-disulfonic acid]
[6]
  compatibility with binder polymers: high in compatibility with binder polymers
  soluble in an ethylcellosolve solution containing 4.5% polyvinylpyrrolidone: ≥ 5%
Solubility in water [1]; Example 20
  solubility in water (in words): very low in solubility in water

## CC(C)CNS(=O)(=O)c1cc(N=[N+]=[N-])ccc1C=Cc1ccc(N=[N+]=[N-])cc1S(=O)(=O)NCC(C)C [Amide No. 10]
[2]
  Solubility: Good
